{
  "source": "patent US6100077A",
  "about": "“Isolation of a gene encoding diacylglycerol acyltransferase” (priority 1998, dated 2000)",
  "molecules": {"B1": {"name": "ACAT1: human acyl Coenzyme A-cholesterol acyltransferase 1 expressed in yeast from cDNA (protein, UniProt P35610 1-550, looked up)", "Sterol O-acyltransferase 1": "MVGEEKMSLRNRLSKSRENPEEDEDQRNPAKESLETPSNGRIDIKQLIAKKIKLTAEAEELKPFFMKEVGSHFDDFVTNLIEKSASLDNGGCALTTFSVLEGEKNNHRAKDLRAPPEQGKIFIARRSLLDELLEVDHIRTIYHMFIALLILFILSTLVVDYIDEGRLVLEFSLLSYAFGKFPTVVWTWWIMFLSTFSVPYFLFQHWATGYSKSSHPLIRSLFHGFLFMIFQIGVLGFGPTYVVLAYTLPPASRFIIIFEQIRFVMKAHSFVRENVPRVLNSAKEKSSTVPIPTVNQYLYFLFAPTLIYRDSYPRNPTVRWGYVAMKFAQVFGCFFYVYYIFERLCAPLFRNIKQEPFSARVLVLCVFNSILPGVLILFLTFFAFLHCWLNAFAEMLRFGDRMFYKDWWNSTSYSNYYRTWNVVVHDWLYYYAYKDFLWFFSKRFKSAAMLAVFAVSAVVHEYALAVCLSFFYPVLFVLFMFFGMAFNFIVNDSRKKPIWNVLMWTSLFLGNGVLLCFYSQEWYARQHCPLKNPTFLDYVRPRSWTCRYVF"}, "B2": {"name": "ARGP1: ACAT Related Gene Product 1, 488 amino acid protein (SEQ ID NO:1), proposed diacylglycerol acyltransferase (protein)", "chain": "MGDRGSSRRRRTGSRPSSHGGGGPAAAEEEVRDAAAGPDVGAAGDAPAPAPNKDGDAGVGSGHWELRCHRLQDSLFSSDSGFSNYRGILNWCVVMLILSNARLFLENLIKYGILVDPIQVVSLFLKDPHSWPAPCLVIAANVFAVAAFQVEKRLAVGALTEQAGLLLHVANLATILCFPAAVVLLVESITPVGSLLALMAHTILFLKLFSYRDVNSWCRRARAKAASAGKKASSAAAPHTVSYPDNLTYRDLYYFLFAPTLCYELNFPRSPRIRKRFLLRRILEMLFFTQLQVGLIQQWMVPTIQNSMKPFKDMDYSRIIERLLKLAVPNHLIWLIFFYWLFHSCLNAVAELMQFGDREFYRDWWNSESVTYFWQNWNIPVHKWCIRHFYKPMLRRGSSKWMARTGVFLASAFFHEYLVSVPLRMFRLWAFTGMMAQIPLAWFVGRFFQGNYGNAAVWLSLIIGQPIAVLMYVHDYYVLNYEAPAAEA"}},
  "key": {"ACAT2 (ARGP2)": {"molecular_target": "T1, ACAT2 (ARGP2) (Homo sapiens, UniProt O75908)", "T1 construct": "The cDNA inserts of the longest ARGP1 and ARGP2 HepG2 library clones were removed by NotI, EcoRI digestion and ligated into the yeast expression vector; made in house; host or cells: Saccharomyces cerevisiae strain SCY059 (are1 are2 deleted), vector pRS426GP, GAL1/GAL10 promoter; microsomes", "T1 sequence (O75908 1-522)": "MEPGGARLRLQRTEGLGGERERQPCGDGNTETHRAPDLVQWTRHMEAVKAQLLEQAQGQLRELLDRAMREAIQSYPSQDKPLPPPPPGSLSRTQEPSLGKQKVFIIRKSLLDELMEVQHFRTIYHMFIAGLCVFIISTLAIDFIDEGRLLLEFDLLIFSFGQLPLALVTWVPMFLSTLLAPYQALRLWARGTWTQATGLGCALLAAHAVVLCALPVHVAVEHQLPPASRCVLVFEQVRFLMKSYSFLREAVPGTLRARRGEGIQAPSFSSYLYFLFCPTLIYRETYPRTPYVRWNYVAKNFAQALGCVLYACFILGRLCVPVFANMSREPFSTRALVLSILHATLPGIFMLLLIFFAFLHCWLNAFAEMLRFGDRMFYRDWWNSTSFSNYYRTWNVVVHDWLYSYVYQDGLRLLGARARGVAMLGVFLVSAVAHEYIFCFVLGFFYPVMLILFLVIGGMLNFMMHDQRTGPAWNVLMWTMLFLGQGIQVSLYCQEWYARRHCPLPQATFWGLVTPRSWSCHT", "experiment": "In vitro assay of ACAT activity in yeast microsomes expressing ARGP2 (ACAT2) (inhibitor sensitivity)", "assay_type": "biochemical", "from_the_text": "(§1) In Vitro Assay of ACAT Activity in Yeast Microsomes. The cDNA inserts of the longest ARGP1 and ARGP2 HepG2 library clones were removed by NotI, EcoRI digestion and ligated into the yeast expression vector pRS426GP which utilizes the galactose inducible GAL1/GAL10 promoter. A cDNA corresponding to the coding region of human ACAT1 flanked by 5 bp of 5' untranslated region and 1 bp of 3' untranslated region, in pRS426GP was described previously (27). Yeast strain, SCY059 (MATα, ade2-1, can1-1, trp1-1, ura3-1, his3-11, 15, leu2-3, 112, metl4Δ14HpaI-SalI,are1ΔNA::HIS3, are2Δ::LEU2 ) with deletions in ARE1 and ARE2, the yeast homologs of human ACAT1 (4), was transformed with the above constructs or pRS426GP using lithium acetate and nucleic acid prototrophy selection (28). […] Culturing of the transformed yeast, induction of expression, microsome isolation, and sterol esterification assays were as described previously […]. In those experiments involving diethylpyrocarbonate (DEPC) to modify histidine residues, a preincubation with 100 μM DEPC was performed as described (2).\n(§2) Assay of ACAT activity in ACAT negative yeast transformed with ARGP1 and ARGP2. The ability of ARGP1 and ARGP2 to esterify sterols was assayed in a sterol esterification deficient yeast strain (SCY059) in which the endogenous ARE genes were deleted . […]"}, "human ACAT1": {"molecular_target": "T2, human ACAT1 (Homo sapiens, UniProt P35610)", "T2 construct": "A cDNA corresponding to the coding region of human ACAT1 flanked by 5 bp of 5' untranslated region and 1 bp of 3' untranslated region; made in house; host or cells: Saccharomyces cerevisiae strain SCY059 (are1 are2 deleted), vector pRS426GP, GAL1/GAL10 promoter; microsomes", "T2 sequence (P35610 1-550)": "B1 Sterol O-acyltransferase 1", "experiment": "In vitro assay of ACAT activity in yeast microsomes expressing human ACAT1 (inhibitor sensitivity)", "assay_type": "biochemical", "from_the_text": "as §1, §2"}, "[1]": {"system": "incorporation of [14C]-oleate into sterol ester", "experiment": "In vitro microsomal ACAT activity of cDNAs expressed in ACAT-negative yeast SCY059", "from_the_text": "as §1\nAssay of ACAT activity in ACAT negative yeast transformed with ARGP1 and ARGP2. The ability of ARGP1 and ARGP2 to esterify sterols was assayed in a sterol esterification deficient yeast strain (SCY059) in which the endogenous ARE genes were deleted . Microsomes from these yeast, transformed with an expression vector harboring no insert or cDNA inserts for ARGP1, ARGP2, or human ACAT1 were assayed in vitro for the incorporation of [^14 C]-oleate into sterol ester."}},
  "note": "“Also recorded” adds a separate entry of the source. Where two headings read alike, the source gives them in different places.",
  "data": [
    {"molecule": "CCOC(=O)OC(=O)OCC", "note": "[DEPC, diethylpyrocarbonate]", "values": [
      {"measurement": "Degree of Inhibition", "setting": "ACAT2 (ARGP2); 100 μm DEPC, ACAT2", "result": 33, "unit": "%"},
      {"measurement": "Active site Modification: Plus DEPC (100 μm) (ACAT activity)", "setting": "ACAT2 (ARGP2); ACAT2 microsomes preincubated with 100 μm DEPC, triplicate", "result": "30 +/- 1"},
      {"measurement": "Degree of Inhibition", "setting": "human ACAT1; 100 μm DEPC, ACAT1", "result": 80, "unit": "%"},
      {"measurement": "Active site Modification: Plus DEPC (100 μm) (ACAT activity)", "setting": "human ACAT1; ACAT1 microsomes preincubated with 100 μm DEPC, triplicate", "result": "69 +/- 4"}
    ]},
    {"molecule": "B1", "values": [
      {"measurement": "In Vitro Microsomal ACAT activity (cholesterol ester formation rate)", "setting": "[1]", "result": "340 +/- 76 pmol/minute/μg microsomal prot"},
      {"measurement": "Active site Modification: Minus DEPC (ACAT activity)", "setting": "[1]; no DEPC preincubation, representative experiment in triplicate", "result": "340 +/- 16"}
    ]},
    {"molecule": "B2", "values": [
      {"measurement": "ACAT activity (sterol esterification), result in words", "setting": "[1]; expressed in yeast", "result": "did not display significant ACAT activity; also recorded: failed to detectably esterify cholesterol or ergosterol"},
      {"measurement": "In Vitro Microsomal ACAT activity (cholesterol ester formation rate)", "setting": "[1]; microsomes of transformed yeast SCY059, exogenous cholesterol in Triton WR-1339, three experiments on different preparations", "result": "4 +/- 3 pmol/minute/μg microsomal prot"}
    ]}
  ]
}
